Source: patent US9259401B2 (priority 2011, dated 2016)
Several values for one entry are separate records, joined by “and”; a condition that tells them apart may be missing. Equal values may be shown once. Read-outs that look alike come from different tables or passages of the source.

Experiment: Comparative bioavailability study, curcumin in plasma by HPLC
Type: in vivo, human
Conditions: for concentration at 1 hr / concentration at 2 hr / concentration at 4 hr / concentration at 6 hr / concentration at 8 hr / concentration at 24 hr: human, plasma, po, 1 gm; for Mean plasma concentration: listed as Curcumin Powder 95%; for Individual plasma concentration: single oral dose equivalent to 1 gm curcuminoids
Description: The bioavailability study was conducted at Amala Cancer Institute, Thrissur, Kerala on a request from the applicant. Twelve healthy subjects were recruited for the purpose of the study. […] The study design chosen was a balanced, open label, two-treatment, two-period, single dose, bioavailability study.
12 Subject were recruited for the study and were asked to avoid consumption of food containing rich turmeric powder or extract for 24 hours preceding each period. […] The following supplements were used for the purpose of the study:
Each of the supplements were administered with 240 ml water in each period.
The study design is open label, two-treatment, two-period, single dose, bioavailability study. […] Subjects were asked to avoid consumption of food containing rich turmeric powder or extract for 24 hours preceding each period. […] There was a washout period of at least 2 weeks between the doses.
Blood was drawn from each subject just prior to dosing and at 1, 2, 4, 6, 8, and 24 hours post-dose. The total blood loss for each subject was approximately 70 ml and there were totally 14 blood samples of 5 ml each time point throughout the study.
The primary efficacy variables were measured in this study were Cmax, AUCO-t and AUCO-∞ and the secondary efficacy variable were as follows Tmax, T½ and Kel. The statistical evaluation was done by Winnonlin Software 5.0.1 version. […] Tmax and T½ were also be recorded and compared for the two products.
Preparation of Sample (Spiked with Standard Solution E): The frozen plasma samples were allowed to attain the room temperature. 1000 μl of the plasma sample was pipetted out and spiked with 100 μl of spiking standard solution E. This solution was vortex for 1 minute and 3.0 ml ethyl acetate (HPLC Grade) was added to the above solutions. The solution was vortex again for 1 minute with the aid of cyclomixer and allowed to settle down at room temperature.
1.5 ml of the upper ethyl acetate layer was pipetted out and evaporated to dryness using vacuum. The dried sample was dissolved in 600 μl of methanol (HPLC Grade) using vortex mixer. This solution was filtered by 0.2 micron membrane filter paper. 100 μl of these filtered solution was injected in HPLC (Waters Alliance System with 2996 PDA detector in isocratic mode). The column used was LiChrospher 100 RP-18 (250×4.6 mm 5 μM particle size) with methanol as the mobile phase and the detection wavelength was 420 nm. To identify and quantized curcuminoids in plasma the chromatographic peaks were compared with standard solution.

[1] = individual subjects, 1 gm curcuminoids oral, listed as Curcumin Extract Powder (min 95% Curcuminoids)

`COc1cc(C=CC(=O)CC(=O)C=Cc2ccc(O)c(OC)c2)ccc1O` [Curcumin, 1,7-bis(4-hydroxy-3-methoxyphenyl)-1,6-heptadien-3,5-dione] gave a concentration at 1 hr (time 1 hr, 1 gm curcuminoids oral, read-out: Max plasma concentration) of 20.6 ng/mL, a concentration at 1 hr (time 1 hr, 1 gm curcuminoids oral, read-out: Mean plasma concentration) of 5.46 ng/mL and a concentration at 1 hr (time 1 hr, 1 gm curcuminoids oral, read-out: Median plasma concentration) of 1.66 ng/mL. The concentration at 1 hr (time 1 hr, 1 gm curcuminoids oral, read-out: Min plasma concentration) was 0.05 ng/mL, the concentration at 2 hr (time 2 hr, 1 gm curcuminoids oral, read-out: Geometric Mean plasma concentration) was 13.5 ng/mL and the concentration at 2 hr (time 2 hr, 1 gm curcuminoids oral, read-out: Max plasma concentration) was 19.8 ng/mL. The concentration at 2 hr (time 2 hr, 1 gm curcuminoids oral, read-out: Mean plasma concentration) was 14.4 ng/mL, the concentration at 2 hr (time 2 hr, 1 gm curcuminoids oral, read-out: Median plasma concentration) was 14.9 ng/mL and the concentration at 2 hr (time 2 hr, 1 gm curcuminoids oral, read-out: Min plasma concentration) was 8.39 ng/mL. The concentration at 4 hr (time 4 hr, 1 gm curcuminoids oral, read-out: Geometric Mean plasma concentration) was 4.89 ng/mL, the concentration at 4 hr (time 4 hr, 1 gm curcuminoids oral, read-out: Max plasma concentration) was 15.6 ng/mL and the concentration at 4 hr (time 4 hr, 1 gm curcuminoids oral, read-out: Mean plasma concentration) was 7.07 ng/mL. For the same molecule, the concentration at 4 hr (time 4 hr, 1 gm curcuminoids oral, read-out: Median plasma concentration) was 7.09 ng/mL, the concentration at 4 hr (time 4 hr, 1 gm curcuminoids oral, read-out: Min plasma concentration) was 0.75 ng/mL and the concentration at 6 hr (time 6 hr, 1 gm curcuminoids oral, read-out: Geometric Mean plasma concentration) was 3.03 ng/mL. It also gave a concentration at 6 hr (time 6 hr, 1 gm curcuminoids oral, read-out: Max plasma concentration) of 4.87 ng/mL, a concentration at 6 hr (time 6 hr, 1 gm curcuminoids oral, read-out: Mean plasma concentration) of 3.23 ng/mL and a concentration at 6 hr (time 6 hr, 1 gm curcuminoids oral, read-out: Median plasma concentration) of 2.77 ng/mL. It also gave a concentration at 6 hr (time 6 hr, 1 gm curcuminoids oral, read-out: Min plasma concentration) of 2.05 ng/mL, a concentration at 8 hr (time 8 hr, 1 gm curcuminoids oral, read-out: Geometric Mean plasma concentration) of 6.56 ng/mL and a concentration at 8 hr (time 8 hr, 1 gm curcuminoids oral, read-out: Max plasma concentration) of 36.1 ng/mL. The concentration at 8 hr (time 8 hr, 1 gm curcuminoids oral, read-out: Mean plasma concentration) was 18.6 ng/mL, the concentration at 8 hr (time 8 hr, 1 gm curcuminoids oral, read-out: Median plasma concentration) was 18.6 ng/mL and the concentration at 8 hr (time 8 hr, 1 gm curcuminoids oral, read-out: Min plasma concentration) was 1.19 ng/mL. The concentration at 24 hr (time 24 hr, 1 gm curcuminoids oral, read-out: Geometric Mean plasma concentration) was 2.23 ng/mL, the concentration at 24 hr (time 24 hr, 1 gm curcuminoids oral, read-out: Max plasma concentration) was 11.5 ng/mL and the concentration at 24 hr (time 24 hr, 1 gm curcuminoids oral, read-out: Mean plasma concentration) was 4.27 ng/mL. For the same molecule, the concentration at 24 hr (time 24 hr, 1 gm curcuminoids oral, read-out: Median plasma concentration) was 1.93 ng/mL, the concentration at 24 hr (time 24 hr, 1 gm curcuminoids oral, read-out: Min plasma concentration) was 0.53 ng/mL and the AUCINF [1] was 87.74 ng·h/mL and 77.46 ng·h/mL. The AUCT [1] was 38.31 ng·h/mL and 53.25 ng·h/mL and 31.24 ng·h/mL and 82.17 ng·h/mL and 175.60 ng·h/mL and 137.89 ng·h/mL and 198.27 ng·h/mL and 73.46 ng·h/mL, the Cmax [1] was 2.48 ng/mL and 7.99 ng/mL and 15.62 ng/mL and 8.39 ng/mL and 9.09 ng/mL and 11.49 ng/mL and 36.11 ng/mL and 14.94 ng/mL and the Thalf [1] was 11.39 h and 5.95 h and 5.21 h. For the same molecule, the Tmax [1] was 1.00 h and 4.00 h and 2.00 h and 24.00 h and 8.00 h, the Mean plasma concentration (time 0 hr (prior to dosing), 1 gm curcuminoids oral) was 0.0000 ng/mL and the Individual plasma concentration (time 0.00 hr (prior to dosing), individual subjects) was 0.00 ng/mL. For the same molecule, the Mean plasma concentration (time 1 hr, 1 gm curcuminoids oral) was 5.4638 ng/mL, the Individual plasma concentration (time 1.00 hr, individual subjects, listed as Curcumin Extract Powder 95%) was 2.48 ng/mL and 7.99 ng/mL and 0.84 ng/mL and 0.05 ng/mL and 20.58 ng/mL and 0.85 ng/mL and the Mean plasma concentration (time 2 hr, 1 gm curcuminoids oral) was 14.3842 ng/mL. The Individual plasma concentration (time 2.00 hr, individual subjects, listed as Curcumin Extract Powder 95%) was 8.39 ng/mL and 19.82 ng/mL and 14.94 ng/mL, the Mean plasma concentration (time 4 hr, 1 gm curcuminoids oral) was 7.0711 ng/mL and the Individual plasma concentration (time 4.00 hr, individual subjects, listed as Curcumin Extract Powder 95%) was 0.75 ng/mL and 4.53 ng/mL and 15.62 ng/mL and 7.09 ng/mL and 7.36 ng/mL. The Mean plasma concentration (time 6 hr, 1 gm curcuminoids oral) was 3.2316 ng/mL, the Individual plasma concentration (time 6.00 hr, individual subjects, listed as Curcumin Extract Powder 95%) was 2.05 ng/mL and 4.87 ng/mL and 2.77 ng/mL and the Mean plasma concentration (time 8 hr, 1 gm curcuminoids oral) was 18.6496 ng/mL. For the same molecule, the Individual plasma concentration (time 8.00 hr, individual subjects, listed as Curcumin Extract Powder 95%) was 1.19 ng/mL and 36.11 ng/mL, the Mean plasma concentration (time 24 hr, 1 gm curcuminoids oral) was 4.2698 ng/mL and the Individual plasma concentration (time 24.00 hr, individual subjects, listed as Curcumin Extract Powder 95%) was 2.47 ng/mL and 1.39 ng/mL and 0.65 ng/mL and 9.09 ng/mL and 11.49 ng/mL and 0.53 ng/mL.
